Measurements reported in patent US8455475B2 (Gruenenthal GmbH, priority 2009, dated 2013).

Tests used:
[1] = molecular target: T1, human B1R (bradykinin receptor 1) (Homo sapiens, UniProt P46663); assay: FLIPR Ca2+ assay (Fluo-4) on CHO K1 cells stably transfected with the human B1R gene (hB1R cells): % inhibition at 10 μM / IC50, agonist Lys-Des-Arg9-bradykinin; format: cell-based; conditions: CHO-K1, human B1R
T1 construct: expressed in transfected cells; host or cells: CHO K1 cells
T1 sequence (P46663 1-353): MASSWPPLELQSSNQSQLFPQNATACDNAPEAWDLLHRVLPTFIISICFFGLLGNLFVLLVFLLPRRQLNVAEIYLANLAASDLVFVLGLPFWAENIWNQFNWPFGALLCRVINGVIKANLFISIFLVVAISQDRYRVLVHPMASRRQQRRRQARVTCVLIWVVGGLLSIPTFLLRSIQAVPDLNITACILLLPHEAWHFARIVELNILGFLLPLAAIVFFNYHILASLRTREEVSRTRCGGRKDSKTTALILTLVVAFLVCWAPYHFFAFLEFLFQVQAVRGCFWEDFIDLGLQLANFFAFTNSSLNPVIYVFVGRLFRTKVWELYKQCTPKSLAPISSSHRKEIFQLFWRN
Method in brief: (§1)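 Using a two-addition FLIPR protocol, compound (10 μM for % values; concentration series for IC50) was preincubated 10–20 min with Fluo-4-loaded B1R-expressing CHO K1 cells before EC80 agonist challenge. Suppression of Ca2+ inflow, read as peak fluorescence, is expressed relative to maximum achievable inhibition; duplicate/triplicate, ≥2 independent experiments.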

[2] = molecular target: T2, rat B1R (bradykinin receptor 1) (Rattus norvegicus, UniProt P97583); assay: FLIPR Ca2+ assay (Fluo-4) on CHO K1 cells stably transfected with the B1R gene of the rat (rB1R cells): % inhibition at 10 μM / IC50, agonist Des-Arg9-bradykinin; format: cell-based; conditions: CHO-K1, rat B1R
T2 construct: expressed in transfected cells; host or cells: CHO K1 cells
T2 sequence (P97583 1-337): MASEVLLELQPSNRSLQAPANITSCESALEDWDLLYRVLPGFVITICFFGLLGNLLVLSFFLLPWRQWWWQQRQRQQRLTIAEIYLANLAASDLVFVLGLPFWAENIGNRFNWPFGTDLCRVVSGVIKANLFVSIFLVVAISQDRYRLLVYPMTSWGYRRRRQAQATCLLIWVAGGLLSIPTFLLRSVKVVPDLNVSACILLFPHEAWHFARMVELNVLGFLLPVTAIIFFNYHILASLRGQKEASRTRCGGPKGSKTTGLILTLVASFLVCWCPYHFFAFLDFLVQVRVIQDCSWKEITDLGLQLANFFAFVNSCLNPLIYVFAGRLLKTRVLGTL
Method in brief: as §1

| inhibition at 10 µM [1] | inhibition at 10 µM [2] | Structure (SMILES) |
| --- | --- | --- |
| 100% | 102% | Cc1ncccc1C(=O)N[C@@H]1CCc2ccc(C(=O)N3CCC4(CCN(c5ccncc5)CC4)C3)cc21 [Example H-114, 2-Methyl-N-[(1R)-6-(8-pyridin-4-yl-3,8-diazaspiro[4.5]decane-3-carbonyl)-2,3-dihydro-1H-inden-1-yl]-pyridine-3-carboxylic acid amide] |
| 65% | 104% | O=C(N[C@@H]1CCc2ccc(C(=O)N3CCC4(CCC(OCCn5ccnc5)CC4)CC3)cc21)c1ccccc1Cl [Example H-120, 2-Chloro-N-[6-[9-[2-(1H-imidazol-1-yl)-ethoxy]-3-azaspiro[5.5]undecane-3-carbonyl]-2,3-dihydro-1H-inden-1-yl]-benzamide] |
| 100% | 89% | O=C(c1ccc2c(c1)CC[C@H]2NS(=O)(=O)c1ccccc1Cl)N1CCC2(CCN(c3ccncc3)CC2)C1 [Example H-173, 2-Chloro-N-[(1R)-5-(8-pyridin-4-yl-3,8-diazaspiro[4.5]decane-3-carbonyl)-2,3-dihydro-1H-inden-1-yl]-benzenesulfonic acid amide] |
| 100% | 109% | O=C(N[C@@H]1CCc2ccc(C(=O)N3CCC4(CC3)CCN(c3ccncc3)CC4)cc21)c1ccccc1F [Example H-102, 2-Fluoro-N-[(1R)-6-(9-pyridin-4-yl-3,9-diazaspiro[5.5]undecane-3-carbonyl)-2,3-dihydro-1H-inden-1-yl]-benzamide] |
| 100% | 103% | Cc1cc2c(cc1C(=O)N1CCC3(CCN(c4ccncc4)CC3)C1)[C@H](NC(=O)c1ccccc1Cl)CC2 [Example H-93, 2-Chloro-N-[(1R)-5-methyl-6-(8-pyridin-4-yl-3,8-diazaspiro[4.5]decane-3-carbonyl)-2,3-dihydro-1H-inden-1-yl]-benzamide] |
| 94% | 100% | Cc1cc(OC(F)(F)F)ccc1C(=O)N[C@@H]1CCc2ccc(C(=O)N3CCC4(CCN(c5ccncc5)CC4)C3)cc21 [Example H-74, 2-Methyl-N-[(1R)-6-(8-pyridin-4-yl-3,8-diazaspiro[4.5]decane-3-carbonyl)-2,3-dihydro-1H-inden-1-yl]-4-(trifluoromethyloxy)-benzamide] |
| 100% | 103% | O=C(N[C@@H]1CCCc2ccc(C(=O)N3CC4(CCN(c5ccncc5)CC4)C3)cc21)c1ccccc1Cl [Example H-71, 2-Chloro-N-[(1R)-7-(7-pyridin-4-yl-2,7-diazaspiro[3.5]nonane-2-carbonyl)-1,2,3,4-tetrahydro-naphthalen-1-yl]-benzamide] |
| 100% | 101% | O=C(c1ccc2c(c1)[C@H](NS(=O)(=O)c1ccccc1C(F)(F)F)CC2)N1CCC2(CCN(c3ccncc3)CC2)C1 [Example H-118, N-[(1R)-6-(8-Pyridin-4-yl-3,8-diazaspiro[4.5]decane-3-carbonyl)-2,3-dihydro-1H-inden-1-yl]-2-(trifluoromethyl)-benzenesulfonic acid amide] |

Second part, the molecule before the results:

| Structure (SMILES) | inhibition at 10 µM [1] | inhibition at 10 µM [2] |
| --- | --- | --- |
| CN(C(=O)Nc1ccc(Cl)c(Cl)c1)C1CCc2ccc(C(=O)N3CCC4(CC3)CCN(c3ccncc3)CC4)cc21 (centres unmarked) [Ind_CC-022, 3-(3,4-dichlorophenyl)-1-methyl-1-[6-(9-pyridin-4-yl-3,9-diazaspiro[5.5]undecane-3-carbonyl)-2,3-dihydro-1H-inden-1-yl]-urea] | 91% | 75% |
| COc1ccc(C(=O)NC2CC(C)(C)c3ccc(C(=O)N4CCC5(CC4)CCN(c4ccncc4)CC5)cc32)c(Cl)c1 (centres unmarked) [IND_CC-246, 2-Chloro-N-[3,3-dimethyl-6-(3-pyridin-4-yl-3,9-diazaspiro[5.5]undecane-9-carbonyl)-1,2-dihydro-inden-1-yl]-4-methoxy-benzamide] | 99% | 100% |
| CC1(C)CC(NC(=O)c2ccccc2Cl)c2cc(C(=O)N3CCC4(CC3)CCN(c3ccncc3)CC4)ccc21 (centres unmarked) [IND_CC-292, 2-Chloro-N-[3,3-dimethyl-6-(3-pyridin-4-yl-3,9-diazaspiro[5.5]undecane-9-carbonyl)-1,2-dihydro-inden-1-yl]-benzamide] | 99% | 105% |
| O=C(NC1CCc2ccc(C(=O)N3CCC4(CC3)CCN(c3ccncc3)C4)cc21)c1c(Cl)cccc1Cl (centres unmarked) [IND_CC-270, 2,6-Dichloro-N-[6-(2-pyridin-4-yl-2,8-diazaspiro[4.5]decane-8-carbonyl)-2,3-dihydro-1H-inden-1-yl]-benzamide] | 100% | 108% |
| O=C(/C=C/c1ccccc1Cl)NC1CCc2ccc(C(=O)N3CCC4(CCN(c5ccncc5)CC4)C3)cc21 (centres unmarked) [Ind_CC-083, (E)-3-(2-chlorophenyl)-N-[6-(8-pyridin-4-yl-2,8-diazaspiro[4.5]decane-2-carbonyl)-2,3-dihydro-1H-inden-1-yl]-acrylamide] | 90% | 85% |
| O=C(N[C@@H]1CCc2ccc(C(=O)N3CCC4(CCC(C(=O)N[C@H]5CN6CCC5CC6)CC4)CC3)cc21)c1ccccc1Cl [Example H-52, N-[(5R)-1-Azabicyclo[2.2.2]octan-5-yl]-3-[(3R)-3-[(2-chloro-benzoyl)amino]-2,3-dihydro-1H-indene-5-carbonyl]-3-azaspiro[5.5]undecane-9-carboxylic acid amide] | 28% | 46% |
| O=C(c1ccc2c(c1)C(NS(=O)(=O)Cc1ccccc1C(F)(F)F)CC2)N1CCC2(CC1)CCN(c1ccncc1)C2 (centres unmarked) [IND_CC-237, N-[6-(2-Pyridin-4-yl-2,8-diazaspiro[4.5]decane-8-carbonyl)-2,3-dihydro-1H-inden-1-yl]-1-[2-(trifluoromethyl)-phenyl]-methanesulfonic acid amide] | 100% | 98% |
| CN(C(=O)c1ccccc1Cl)C1CCc2ccc(C(=O)N3CCC4(CCN(c5ccncc5)CC4)C3)cc21 (centres unmarked) [Ind_CC-111, 2-chloro-N-methyl-N-[6-(8-pyridin-4-yl-2,8-diazaspiro[4.5]decane-2-carbonyl)-2,3-dihydro-1H-inden-1-yl]-benzamide] | 100% | 101% |
| O=C(Cc1ccccc1Cl)NC1CCc2ccc(C(=O)N3CCC4(CC3)CCN(c3ccncc3)C4)cc21 (centres unmarked) [Ind_CC-045, 2-(2-chlorophenyl)-N-[6-(2-pyridin-4-yl-2,8-diazaspiro[4.5]decane-8-carbonyl)-2,3-dihydro-1H-inden-1-yl]-acetamide] | 100% | 101% |
| O=C(NC1CCc2ccc(C(=O)N3CCC4(CC3)CCN(c3ccncc3)CC4)cc21)c1ccc(Cl)cc1Cl (centres unmarked) [Ind_CC-006, 2,4-dichloro-N-[6-(9-pyridin-4-yl-3,9-diazaspiro[5.5]undecane-3-carbonyl)-2,3-dihydro-1H-inden-1-yl]-benzamide] | 98% | 98% |
| CC1(C)CC(NS(=O)(=O)CCc2ccccc2Cl)c2cc(C(=O)N3CCC4(CC3)CCN(c3ccncc3)CC4)ccc21 (centres unmarked) [IND_CC-260, 2-(2-Chlorophenyl)-N-[3,3-dimethyl-6-(3-pyridin-4-yl-3,9-diazaspiro[5.5]-undecane-9-carbonyl)-1,2-dihydro-inden-1-yl]-ethanesulfonic acid amide] | 100% | 100% |
